Assay results: patent publication US8440660B2 (Santen Pharmaceutical Co., Ltd., priority 2006, dated 2013)
Structures can show the parent of a compound that is named as a salt.

biological target: T1, Glucocorticoid Receptor (GR) (Homo sapiens, UniProt P04150); assay: GR receptor competitor assay by fluorescence polarization (Invitrogen GR competitor assay kit, cat No. P2816); conditions: 20 μM test compound solution, 10 μL per well plus 5 μL 4×GS1 and 5 μL 4×GR solution; recombinant human GR; 2 to 4 hours at room temperature; a ratio of 100% or more is indicated by 100%; read-out: GR Binding ratio (%)
T1 construct: purchased Invitrogen P2816
T1 sequence (P04150 1-777): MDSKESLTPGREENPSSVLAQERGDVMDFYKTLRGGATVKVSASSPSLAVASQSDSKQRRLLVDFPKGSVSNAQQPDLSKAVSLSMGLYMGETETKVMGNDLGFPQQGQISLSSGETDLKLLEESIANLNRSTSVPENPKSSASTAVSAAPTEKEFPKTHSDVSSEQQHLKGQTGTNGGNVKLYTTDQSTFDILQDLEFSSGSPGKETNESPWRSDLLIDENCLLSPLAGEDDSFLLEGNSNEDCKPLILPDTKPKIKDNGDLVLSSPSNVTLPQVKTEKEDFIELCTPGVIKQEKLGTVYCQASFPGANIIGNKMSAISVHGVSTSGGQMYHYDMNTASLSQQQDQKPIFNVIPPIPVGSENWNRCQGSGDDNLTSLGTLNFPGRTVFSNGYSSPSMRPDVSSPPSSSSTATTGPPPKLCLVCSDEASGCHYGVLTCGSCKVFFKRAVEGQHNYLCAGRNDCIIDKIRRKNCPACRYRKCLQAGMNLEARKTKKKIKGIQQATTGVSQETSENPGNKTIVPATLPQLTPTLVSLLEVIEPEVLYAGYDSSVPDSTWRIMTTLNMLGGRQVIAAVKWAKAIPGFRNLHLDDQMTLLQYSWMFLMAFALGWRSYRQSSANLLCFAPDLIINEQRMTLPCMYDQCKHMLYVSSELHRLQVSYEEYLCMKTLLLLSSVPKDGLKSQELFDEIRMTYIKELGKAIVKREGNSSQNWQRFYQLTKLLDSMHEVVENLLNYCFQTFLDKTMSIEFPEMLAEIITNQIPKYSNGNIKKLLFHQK
Procedure: A detailed explanation of this matter will be described in the section of “Pharmacological Test” in Examples described below. In order to find the usefulness of the present compound as a pharmaceutical, a glucocorticoid receptor competitor assay was carried out by a fluorescence polarization method by using a glucocorticoid receptor competitor assay kit (manufactured by Invitrogen, cat No P2816) to study the glucocorticoid receptor binding activity of the present compound.
1. Evaluation Test for Binding Activity to Glucocorticoid Receptor (Hereinafter Referred to as “GR”)
In order to evaluate a binding activity to GR, a receptor competitor assay was carried out by a fluorescence polarization method. In the assay, a GR competitor assay kit (manufactured by Invitrogen, cat No. P2816) was used, and a procedure was carried out according to the protocol attached to the kit. Hereinafter, the specific method will be described.
(Preparation of Reagents)
GR screening buffer: A buffer containing 10 mM potassium phosphate (pH 7.4), 20 mM sodium molybdate (Na2MoO4), 0.1 mM ethylene diamine tetraacetic acid (EDTA), 5 mM dithiothreitol (DTT), 0.1 mM stabilizing peptide and 2% dimethylsulfoxide was prepared.
4×GS1 solution: Fluormone™ GS1, which is a fluorescent glucocorticoid ligand, was diluted with GR screening buffer, whereby a 4 nM solution was prepared.
4×GR solution: Recombinant human GR was diluted with GR screening buffer, whereby a 16 nM solution was prepared.
(Preparation of Test Compound Solution)
After a test compound was dissolved in dimethylsulfoxide, the resulting solution was diluted with GR screening buffer, whereby a 20 μM test compound solution was prepared.
(Test Method and Measurement Method)
1) The test compound solution was added in an amount of 10 μL into each well of a 384-well plate, and then, 4×GS1 solution and 4×GR solution were added in an amount of 5 μL into each well, respectively.
2) The plate was incubated in a dark place at room temperature for 2 to 4 hours.
3) By using a multimode plate reader, Analyst™ HT (manufactured by LJL Biosystems), fluorescence polarization of each well was measured. As the blank, a well containing GR screening buffer in place of the test compound and 4×GS1 solution was used.
4) The same procedure as that in the above 1) to 3) was carried out except that GR screening buffer was used in place of the test compound solution, and the obtained result was taken as the negative control.
5) The same procedure as that in the above 1) to 3) was carried out except that 2 mM dexamethasone was used in place of the test compound solution, and the obtained result was taken as the positive control.
(Calculation Equation of GR Binding Ratio)
A GR binding ratio (%) was calculated from the following equation. GR binding ratio (%)=100×[1−(fluorescence polarization of test compound solution−fluorescence polarization of positive control solution)/(fluorescence polarization of negative control solution−fluorescence polarization of positive control solution)] (Test Results and Discussion)

Row | SMILES | inhibition at 10 µM
1 | COc1cc(OC(=O)CCc2ccccc2)ccc1-c1ccc2c(c1COc1cc(F)ccc1C)C(C)=CC(C)(C)N2 [Compound 1-33, 5-(5-Fluoro-2-methylphenoxymethyl)-6-[2-methoxy-4-(3-phenylpropionyloxy)phenyl]-2,2,4-trimethyl-1,2-dihydroquinoline] | 89%
2 | COc1cc(OC(=O)C(C)(C)C)ccc1-c1ccc2c(c1COc1cc(F)ccc1C)C(C)=CC(C)(C)N2 [Compound 1-72, 6-(4-t-Butylcarbonyloxy-2-methoxyphenyl)-5-(5-fluoro-2-methylphenoxymethyl)-2,2,4-trimethyl-1,2-dihydroquinoline] | 98%
3 | COc1cc(OC(=O)C2CCN(C(=O)OC(C)(C)C)CC2)ccc1-c1ccc2c(c1COc1cc(F)ccc1C)C(C)=CC(C)(C)N2 [Compound 1-51, 6-[4-(1-t-Butoxycarbonylpiperidin-4-ylcarbonyloxy)-2-methoxyphenyl]-5-(5-fluoro-2-methylphenoxymethyl)-2,2,4-trimethyl-1,2-dihydroquinoline] | 91%
4 | COc1cc(OC(=O)c2ccco2)ccc1-c1ccc2c(c1COc1cc(F)ccc1C)C(C)=CC(C)(C)N2 [Compound 1-19, 5-(5-Fluoro-2-methylphenoxymethyl)-6-[4-(furan-2-ylcarbonyloxy)-2-methoxyphenyl]-2,2,4-trimethyl-1,2-dihydroquinoline] | 100%
5 | CCC(=O)Oc1ccc(OC)c(-c2ccc3c(c2COc2cc(F)ccc2C)C(C)=CC(C)(C)N3)c1 [Compound 1-27, 5-(5-Fluoro-2-methylphenoxylmethyl)-6-(2-methoxy-5-propionyloxyphenyl)-2,2,4-trimethyl-1,2-dihydroquinoline] | 84%
6 | COc1cc(OC(=O)c2cccc(C(C)=O)c2)ccc1-c1ccc2c(c1COc1cc(F)ccc1C)C(C)=CC(C)(C)N2 [Compound 1-58, 6-[4-(3-Acetylbenzoyloxy)-2-methoxyphenyl]-5-(5-fluoro-2-methylphenoxymethyl)-2,2,4-trimethyl-1,2-dihydroquinoline] | 100%
7 | COc1cc(OC(=O)c2ccc(C(C)=O)cc2)ccc1-c1ccc2c(c1COc1cc(F)ccc1C)C(C)=CC(C)(C)N2 [Compound 1-67, 6-[4-(4-Acetylbenzoyloxy)-2-methoxyphenyl]-5-(5-fluoro-2-methylphenoxymethyl)-2,2,4-trimethyl-1,2-dihydroquinoline] | 100%
8 | COc1cc(OC(=O)c2ccoc2)ccc1-c1ccc2c(c1COc1cc(F)ccc1C)C(C)=CC(C)(C)N2 [Compound 1-34, 5-(5-Fluoro-2-methylphenoxymethyl)-6-[4-(furan-3-ylcarbonyloxy)-2-methoxyphenyl]-2,2,4-trimethyl-1,2-dihydroquinoline] | 100%
9 | COc1cccc(C(=O)Oc2ccc(-c3ccc4c(c3COc3cc(F)ccc3C)C(C)=CC(C)(C)N4)c(OC)c2)c1 [Compound 1-7, 5-(5-Fluoro-2-methylphenoxymethyl)-6-[2-methoxy-4-(3-methoxybenzoyloxy)phenyl]-2,2,4-trimethyl-1,2-dihydroquinoline] | 100%
10 | COc1cc(OC(=O)CN)ccc1-c1ccc2c(c1COc1cc(F)ccc1C)C(C)=CC(C)(C)N2 [Compound 3-1, 6-(4-Aminoacetoxy-2-methoxyphenyl)-5-(5-fluoro-2-methylphenoxymethyl)-2,2,4-trimethyl-1,2-dihydroquinoline monohydrochloride] | 100%
11 | COc1ccc(C(=O)Oc2ccc(-c3ccc4c(c3COc3cc(F)ccc3C)C(C)=CC(C)(C)N4)c(OC)c2)cc1 [Compound 1-6] | 100%
12 | COc1cc(OC(=O)c2ccnc(Cl)c2)ccc1-c1ccc2c(c1COc1cc(F)ccc1C)C(C)=CC(C)(C)N2 [Compound 1-90, 6-[4-(2-Chloropyridin-4-ylcarbonyloxy)-2-methoxyphenyl]-5-(5-fluoro-2-methylphenoxymethyl)-2,2,4-trimethyl-1,2-dihydroquinoline] | 95%
13 | COc1cc(OC(=O)c2cccs2)ccc1-c1ccc2c(c1COc1cc(F)ccc1C)C(C)=CC(C)(C)N2 [Compound 1-31, 5-(5-Fluoro-2-methylphenoxymethyl)-6-[2-methoxy-4-(thiophen-2-ylcarbonyloxy)phenyl]-2,2,4-trimethyl-1,2-dihydroquinoline] | 100%
14 | COc1cc(OC(=O)CNC(=O)OC(C)(C)C)ccc1-c1ccc2c(c1COc1cc(F)ccc1C)C(C)=CC(C)(C)N2 [Compound 1-2, 6-(4-t-Butoxycarbonylaminoacetoxy-2-methoxyphenyl)-5-(5-fluoro-2-methylphenoxymethyl)-2,2,4-trimethyl-1,2-dihydroquinoline] | 100%

The next lines start with the values.

Row | inhibition at 10 µM | SMILES
15 | 100% | COc1cc(OC(=O)N2CCOCC2)ccc1-c1ccc2c(c1COc1cc([N+](=O)[O-])ccc1C)C(C)=CC(C)(C)N2 [Compound 6-30, 6-[2-Methoxy-4-(morpholin-4-ylcarbonyloxy)phenyl]-5-(2-methyl-5-nitrophenoxymethyl)-2,2,4-trimethyl-1,2-dihydroquinoline]
16 | 100% | COc1ccc([N+](=O)[O-])cc1OCc1c(-c2ccc(OS(=O)(=O)C(C)C)cc2OC)ccc2c1C(C)=CC(C)(C)N2 [Compound 4-20, 6-(4-Isopropylsulfonyloxy-2-methoxyphenyl)-5-(2-methoxy-5-nitrophenoxymethyl)-2,2,4-trimethyl-1,2-dihydroquinoline]
17 | 100% | COc1cc(OS(=O)(=O)CCC(F)(F)F)ccc1-c1ccc2c(c1COc1cc(F)ccc1C)C(C)=CC(C)(C)N2 [Compound 4-30, 5-(5-Fluoro-2-methylphenoxymethyl)-6-[2-methoxy-4-(3,3,3-trifluoroproprylsulfonyloxy)phenyl]-2,2,4-trimethyl-1,2-dihydroquinoline]
18 | 100% | COc1cc(OS(=O)(=O)C2CCCC2)ccc1-c1ccc2c(c1COc1cc(F)ccc1C)C(C)=CC(C)(C)N2 [Compound 4-29, 6-(4-Cyclopentylsulfonyloxy-2-methoxyphenyl)-5-(5-fluoro-2-methylphenoxymethyl)-2,2,4-trimethyl-1,2-dihydroquinoline]
19 | 100% | COc1cc(OS(=O)(=O)C2CC2)ccc1-c1ccc2c(c1COc1cc(F)ccc1C)C(C)=CC(C)(C)N2 [Compound 4-27, 6-(4-Cyclopropylsulfonyloxy-2-methoxyphenyl)-5-(5-fluoro-2-methylphenoxymethyl)-2,2,4-trimethyl-1,2-dihydroquinoline]
20 | 100% | COc1cc(OC(=O)c2cccnc2)ccc1-c1ccc2c(c1COc1cc([N+](=O)[O-])ccc1C)C(C)=CC(C)(C)N2 [Compound 1-94, 6-[2-Methoxy-4-(pyridin-3-ylcarbonyloxy)phenyl]-5-(2-methyl-5-nitrophenoxymethyl)-2,2,4-trimethyl-1,2-dihydroquinoline]
21 | 89% | COc1cc(OS(=O)(=O)C(C)C)ccc1-c1ccc2c(c1COc1cc(F)ccc1C)C(C)=CC(C)(C)N2 [Compound 4-13, 5-(5-Fluoro-2-methylphenoxymethyl)-6-(4-isopropylsulfonyloxy-2-methoxyphenyl)-2,2,4-trimethyl-1,2-dihydroquinoline]
